Measurements reported in ChEMBL document CHEMBL1201862, “PubChem BioAssay data set” (2004).
Calls of active or inactive are those of the source.

Assays:
Trypsin = Trypsin (Sus scrofa, UniProt P00761); experiment: trypsin protease activity blockade – biochemical, quenched peptide fluorescence, cherry-pick, selectivity assay for Rce1 protease inhibitor project, dose response (AID 488789)
CAAX prenyl protease 2 [1] = target: T1, CAAX prenyl protease 2 (Homo sapiens, UniProt Q9Y256); experiment: inhibition of Ras-converting CAAX protease Rce1 – biochemical, yeast membranes, quenched-peptide fluorescence, cherry-pick, dose response (AID 588849)
T1 sequence (Q9Y256 whole entry): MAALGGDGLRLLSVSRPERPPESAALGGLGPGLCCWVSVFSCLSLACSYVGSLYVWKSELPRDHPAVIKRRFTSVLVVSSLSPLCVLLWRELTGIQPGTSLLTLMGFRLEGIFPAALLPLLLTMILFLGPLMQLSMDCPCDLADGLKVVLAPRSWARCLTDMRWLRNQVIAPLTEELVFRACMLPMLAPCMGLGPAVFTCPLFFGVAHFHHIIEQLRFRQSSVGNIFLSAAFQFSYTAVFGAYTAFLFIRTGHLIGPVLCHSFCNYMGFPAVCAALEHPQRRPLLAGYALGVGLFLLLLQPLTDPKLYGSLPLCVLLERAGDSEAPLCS

[2] = target: DNA dC->dU-editing enzyme APOBEC-3A (Homo sapiens, UniProt P31941); experiment: Dose Response confirmation of small molecule APOBEC3A DNA Deaminase Inhibitors via a fluorescence-based single-stranded DNA deaminase assay. [Related pubchem assays (depositor defined):AID493011, AID493024]; assay type: functional
[3] = target: DNA dC->dU-editing enzyme APOBEC-3G (Homo sapiens, UniProt Q9HC16); assay type: functional;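 note: Dose-response counterscreen measuring inhibition of APOBEC3G DNA deaminase activity, run while confirming APOBEC3A inhibitors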
[4] = target: T2, Carboxy-terminal domain RNA polymerase II polypeptide A small phosphatase 1 (Homo sapiens, UniProt Q9GZU7); experiment: CTDSP1 inhibitors, concentration-response, biochemical, absorbance readout, ultra-high-throughput screen actives (AID 540297); assay type: functional
T2 sequence (Q9GZU7 whole entry): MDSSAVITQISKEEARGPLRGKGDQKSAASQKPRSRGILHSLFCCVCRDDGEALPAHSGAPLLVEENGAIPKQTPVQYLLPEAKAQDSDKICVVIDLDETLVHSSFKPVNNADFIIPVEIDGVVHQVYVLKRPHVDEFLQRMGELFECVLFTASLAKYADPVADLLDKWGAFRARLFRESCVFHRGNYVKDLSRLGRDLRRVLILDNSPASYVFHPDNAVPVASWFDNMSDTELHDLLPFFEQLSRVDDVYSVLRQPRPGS

HEK293 [5] = experiment: EBV LMP1 TES2 canonical NF-kB signalling blockers – cell-based, HEK293, luciferase, cherry-pick, dose response (AID 588343); assay type: functional; conditions: Homo sapiens
[6] = THP-1 cell cytotoxicity, dose response, cytotoxicity control for non-replicating M. tuberculosis project (AID 489025); assay type: functional
[7] = Vero E6 cell cytotoxicity, dose response, cytotoxicity control for non-replicating M. tuberculosis project, secondary assay (AID 492998); assay type: functional, VeroE6; conditions: Vero C1008
cells = assay type: functional
CAAX prenyl protease 2 [8] = target: T3, CAAX prenyl protease 2 (Saccharomyces cerevisiae S288c, UniProt Q03530); assay type: biochemical
T3 sequence (Q03530 whole entry): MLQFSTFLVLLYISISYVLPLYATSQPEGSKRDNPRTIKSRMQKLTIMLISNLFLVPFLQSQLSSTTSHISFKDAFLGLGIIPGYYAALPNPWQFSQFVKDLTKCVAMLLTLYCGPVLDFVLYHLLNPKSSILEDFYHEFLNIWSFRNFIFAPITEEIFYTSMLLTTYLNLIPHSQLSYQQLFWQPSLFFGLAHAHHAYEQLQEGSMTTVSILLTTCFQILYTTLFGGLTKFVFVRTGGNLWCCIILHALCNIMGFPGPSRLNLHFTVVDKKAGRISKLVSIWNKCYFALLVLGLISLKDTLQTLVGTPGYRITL

HEK293 [9] = experiment: inhibition of NOD1-driven NF-kB reporter – cell-based, luminescence, uHTS, primary screen (AID 1578); assay type: functional; conditions: Homo sapiens
HEK293 [10] = experiment: cells; assay type: functional, cell-based; conditions: Homo sapiens
HEK293 [11] = experiment: cells; assay type: functional, cell-based; conditions: Homo sapiens; remark: listed apart in the source
HEK293 [12] = experiment: NOD2 signaling inhibitors in MDP-stimulated cells, cell-based, uHTS, luminescence (AID 2001); assay type: functional; conditions: Homo sapiens

Trypsin, sequence (P00761 whole entry): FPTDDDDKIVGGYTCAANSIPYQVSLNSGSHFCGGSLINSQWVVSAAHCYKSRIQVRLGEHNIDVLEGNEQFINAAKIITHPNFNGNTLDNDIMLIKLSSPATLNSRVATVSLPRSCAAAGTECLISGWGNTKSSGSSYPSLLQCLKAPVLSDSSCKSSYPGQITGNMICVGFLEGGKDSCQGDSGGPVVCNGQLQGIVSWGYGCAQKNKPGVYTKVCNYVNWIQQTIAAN
DNA dC->dU-editing enzyme APOBEC-3G, sequence (Q9HC16 whole entry, the tested form may be a part): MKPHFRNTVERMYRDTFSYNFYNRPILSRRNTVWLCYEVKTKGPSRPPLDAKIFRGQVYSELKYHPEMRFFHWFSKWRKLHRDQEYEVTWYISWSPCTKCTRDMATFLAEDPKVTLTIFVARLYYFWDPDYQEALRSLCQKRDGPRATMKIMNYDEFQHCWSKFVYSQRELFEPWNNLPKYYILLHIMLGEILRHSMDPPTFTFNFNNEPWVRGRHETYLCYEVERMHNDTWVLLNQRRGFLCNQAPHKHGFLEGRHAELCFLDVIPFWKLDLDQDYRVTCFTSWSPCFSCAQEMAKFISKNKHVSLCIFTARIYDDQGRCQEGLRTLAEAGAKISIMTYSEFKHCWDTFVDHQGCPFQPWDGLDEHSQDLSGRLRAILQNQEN
DNA dC->dU-editing enzyme APOBEC-3A, sequence (P31941 whole entry): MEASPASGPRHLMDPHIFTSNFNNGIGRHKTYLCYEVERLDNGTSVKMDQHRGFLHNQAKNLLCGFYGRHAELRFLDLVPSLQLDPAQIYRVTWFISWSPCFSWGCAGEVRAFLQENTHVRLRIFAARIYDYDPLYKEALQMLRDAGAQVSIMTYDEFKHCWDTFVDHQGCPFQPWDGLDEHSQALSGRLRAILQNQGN

Cc1nn(-c2ccccc2)c2nc(N)c(C(N)=O)cc12
AC50 (Trypsin): 37.9 µM (active) | AC50 (CAAX prenyl protease 2 [1]): 21.3 µM (active)

C[N+](C)(C)CCCN(Cc1ccc2c(c1)OCO2)C(=O)NC1CCCCC1
IC50 [2]: 2.43 µM (active) | IC50 [3]: 4.17 µM (active) | IC50 [4]: 3.12 µM (active)

CNC(=O)OCc1n(C)cc[n+]1C
IC50 [2]: 1.76 µM (active) | IC50 [3]: 1.31 µM (active)

COc1ccc2nc(-c3ccc(C)cc3)cc(O)c2c1
AC50 (HEK293 [5]): 2.68 µM (active)

Cc1cc(Cl)ccc1OCC(=O)NNC(=O)c1cnccn1
CC50 [6]: > 40 µM (active) | CC50 [7]: 13.7 µM (active) | IC50 (cells): 5.5 µM (active)

COc1ccc(C2=NN(C(=O)CCC(=O)O)C(c3cccs3)C2)cc1 (stereo not drawn)
AC50 (Trypsin): 4.38 µM (active) | AC50 (CAAX prenyl protease 2 [8]): 9.03 µM (active) | AC50 (CAAX prenyl protease 2 [1]): 12.6 µM (active)

O=C(c1ccc(Cl)cc1)C1CCCN(Cc2ccc3ncccc3c2)C1 (stereo not drawn)
EC50 (HEK293 [9]): 4.42 µM (active) | IC50 (HEK293 [10]): 3.92 µM (active) | IC50 (HEK293 [11]): 15.5 µM (active) | IC50 (HEK293 [12]): 5.78 µM (active)
